Test system: odorant receptor OR5
Test: IR spectroscopy of OR5/tBLM system upon addition of odorant
Format: binding, rat
Experimental: The activity of incorporated odorant receptors was measured using IR spectroscopy.

signal change of the IR amide I peak (recognition of the odor by the receptor) (1 mM lilial added to tBLM integrated OR5): recognition of the odor by the receptor
reversibility of the lilial/OR5 interaction (rinsing with PBS): can be reversed by rinsing with PBS
SMILES: CC(C=O)Cc1ccc(C(C)(C)C)cc1 (centres unmarked) [lilial]

Reference: patent US20090202997A1, “Cell-Free In Vitro Transcription and Translation of Membrane Proteins into Tethered Planar Lipid Layers” (priority 2005, published 2009)
